Experimental data: US20250001009A1, “THERAPY FOR PROGRAMMED CELL DEATH IN A SUBJECT TRANSPLANTED WITH A DONOR LIVER CARRYING THE PNPLA3 RS738409:G VARIANT” (priority 2021, published 2025)
Entries after “also recorded” stand apart in the source; their conditions may differ.

Key:
[1] = tested on: donor hepatocytes positive for the PNPLA3 rs738409:G variant; experiment: Lipid peroxidation (C11-BODIPY / MDA) in primary human hepatocytes; format: cell-based
Protocol: To evaluate the protective effects of deferoxamine, primary human hepatocytes were treated with 100 μM deferoxamine (DFO, Sigma-Aldrich, Saint-Louis, MO) for 24 hours in suspension. To evaluate the protective effects of GSH, primary human hepatocytes on collagen-coated plates were treated with 10 μM reduced L-glutathione (GSH, G4251, Sigma-Aldrich, Saint-Louis, MO) for 48 hours. Analysis of Lipid Peroxidation: A oxidation-sensitive probe C11-BODIPY (581/591) (Invitrogen, Carlsbad, CA) was used to evaluate lipid peroxidation under a fluorescence microscope. Untreated hepatocytes were prepared using a cytocentrifuge, incubated for 30 min with 10 μM C11-BODIPY, and washed with PBS. Cultured cells were incubated with 10 μM C11-BODIPY dissolved in culture media for 30 min at 37° C. and washed with PBS. The fluorescent signal was evaluated 3 hours after induction of ferroptosis. Malondialdehyde (MDA) is a natural biproduct of lipid peroxidation and MDA quantification is used as marker for lipid peroxidation. The MDA content in primary human hepatocytes was quantified using a commercially available kit from Sigma-Aldrich (Sigma-Aldrich, Saint-Louis, MO). Cryopreserved primary human hepatocytes were pelleted and analyzed directly or were cultured for 3 hours in suspension before the analysis. […] The MDA-TBA adduct was quantified using fluorometric detection (ex/em=430 nm/590 nm).

[2] = tested on: donor hepatocytes positive for the PNPLA3 rs738409:G variant; experiment: Cell viability / survival (Alamar Blue) of primary human hepatocytes; format: cell-based
Protocol: To evaluate the protective effects of deferoxamine, primary human hepatocytes were treated with 100 μM deferoxamine (DFO, Sigma-Aldrich, Saint-Louis, MO) for 24 hours in suspension. To evaluate the protective effects of GSH, primary human hepatocytes on collagen-coated plates were treated with 10 μM reduced L-glutathione (GSH, G4251, Sigma-Aldrich, Saint-Louis, MO) for 48 hours. Cell Viability Measurements: Cell viability was assessed in 96-well format using Alamar Blue (Invitrogen, Carlsbad, CA) absorbance (570 nm/600 nm) measured on a synergy HTX microplate reader (Biotek, Winooski, VT) 24 hours after ferroptosis induction. Post thaw viability of primary human hepatocytes was evaluated by Trypan blue dye exclusion counting using a Countess 3 automated cell counter (Invitrogen, Carlsbad, CA).

[3] = tested on: donor hepatocytes positive for the PNPLA3 rs738409:G variant; experiment: Mitochondrial shape by transmission electron microscopy; format: cell-based, human; conditions: in the presence of FINO2
Protocol: To evaluate the protective effects of deferoxamine, primary human hepatocytes were treated with 100 μM deferoxamine (DFO, Sigma-Aldrich, Saint-Louis, MO) for 24 hours in suspension. To evaluate the protective effects of GSH, primary human hepatocytes on collagen-coated plates were treated with 10 μM reduced L-glutathione (GSH, G4251, Sigma-Aldrich, Saint-Louis, MO) for 48 hours. Transmission electron microscopy: Human hepatocytes in suspension were briefly centrifugated and washed with PBS solution. Samples were then fixed with 2.5% glutaraldehyde over night at 4° C. Fixed samples were processed by the Center for Biologic Imaging at the University of Pittsburgh, and treated with 1% osmium tetroxide and 1% potassium ferricyanide for 1 hour at room temperature. Samples were washed with PBS and dehydrated in a graded series of ethanol solution (30%, 50%, 70%, and 90% ethanol; 10 minutes each) and three 15-minute incubations in fresh 100% ethanol. Infiltration/embedding was done with three 1-hour incubations of epon. The last change of epon was removed and beam capsules filled with resin were inverted over relevant areas of the monolayers. […] Mitochondrial shape was evaluated as published previously using ImageJ (Merrill et al. in Techniques to Investigate Mitochondrial Function in Neurons, 123:31-48. Neuromethods. Springer New York, 2017).

| Compound | lipid peroxidation ([1]; donor hepatocytes cultured in the presence of FINO2 (50 μM)) | donor hepatocyte survival ([2]; donor hepatocytes cultured in the presence of FINO2 (50 μM), 24 hours after ferroptosis induction) | mitochondrial shape [3] | lipid peroxidation ([1]; 10 μM reduced L-glutathione, 48 hours, collagen-coated plates) | survival ([2]; 10 μM reduced L-glutathione, 48 hours, collagen-coated plates, p=0.002) |
| --- | --- | --- | --- | --- | --- |
| CC1(CCO)CC2(CCC(C(C)(C)C)CC2)OO1 (stereo not drawn) [FINO2, (5α,8α)-8-(1,1-dimethylethyl)-3-methyl-1,2-dioxaspiro[4.5]decane-3-ethanol, reference compound] | increased lipid peroxidation | significant reduction in donor hepatocyte survival | changed from a rod shape to a spherical shape |  |  |
| N[C@@H](CCC(=O)N[C@@H](CS)C(=O)NCC(=O)O)C(=O)O [GSH, reduced L-glutathione] |  |  |  | reduces lipid peroxidation; also recorded: decreased lipid peroxidation | improves cell survival; also recorded: increased survival |
